{"source": "paper doi:10.1101/2025.04.25.650653", "about": "“Hierarchical small molecule inhibition of MYST acetyltransferases” (bioRxiv, 2025)", "tested_on": "histone modifications in MCF-7 cells", "experiment": "Histone modification analysis by bottom-up LC-MS/MS;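 as to Ratio, H2AV 1 19 K11ac*: inhibitor concentrations in µM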;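 as to Ratio, H2AX 4 11 K5acK9ac: inhibitor concentrations in µM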;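 as to Ratio, H2AX 4 11 K9ac: inhibitor concentrations in µM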;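 as to Ratio, H2AZ 1 19 K15ac: inhibitor concentrations in µM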;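 as to Ratio, H2AZ 1 19 K4ac: inhibitor concentrations in µM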;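 as to Ratio, H2AZ 1 19 K4acK11ac: inhibitor concentrations in µM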", "format": "cell-based", "source_text": "In this approach. […] Histones are then extracted from cell pellets and chemically derivatized with propionic anhydride, digested with trypsin, subjected to a second round of propionylation, and analyzed by LC-MS/MS. Measuring the relative intensity of modified versus unmodified forms of individual histone peptides enables simultaneous monitoring of multiple potential biomarkers of MYST inhibition. To minimize false positives, we focused on abundant and reproducible modifications (average stoichiometry of greater than 1% across triplicate samples, standard deviation less than or equal to the average measurement). To account for potential histone modification crosstalk, changes in both acetylated and methylated peptides were evaluated. 38 modified peptides passed this reproducible detection threshold including several established KAT biomarkers[41] including H3K9Ac (KAT2A/B), H3K18Ac (KAT3A/B), H3K14Ac (KAT7), H3K23Ac (KAT6A/B), H4K16Ac (KAT8), and H2A.ZK4/K7Ac (KAT5; Fig. 4B).\nHistone modification analysis\nMCF-7 cells were cultured at 37 °C under 5% CO2 in EMEM (Quality Biological, 112-016-101) with 0.01 mg/mL human recombinant insulin (Sigma Aldrich, 91077C), 2 mM L-glutamine (Quality Biological, 118- […]\nhuman recombinant insulin.\n1119, WM-3835). Following 24 h inhibitor treatment, cells were washed with ice-cold 1× PBS and scraped in 150 µL of Nuclear Isolation Buffer (NIB) containing 0.1% NP-40 for histone extraction using a modified protocol from the Garcia laboratory. 9 Briefly, cell suspensions were incubated on ice for 5 minutes, and […]\nnuclei were pelleted by centrifugation (600 rcf, 4°C, 5 min). Pelleted nuclei were washed twice with 150 μL of detergent-free NIB buffer, followed by centrifugation (600 rcf, 4°C, 5 min) to remove all detergent.\nNuclei were then resuspended in 400 μL of 0.4 N H₂SO₄ and rotated at 4°C overnight for acid extraction of histones. The following day, samples were centrifuged (11,000 rcf, 4°C, 10 min) and the histone-containing supernatant was transferred to a fresh tube. Trichloroacetic acid (100% TCA) was added to achieve a final concentration of 20% (v/v), tubes were inverted once to mix, and histone precipitation was performed on ice for at least 3 hours or overnight at 4°C. Precipitated histones were collected by centrifugation (11,000 rcf, 4°C, 10 min) and the supernatant carefully removed, leaving a visible film of histones on the tube wall or bottom. Histone pellets were subjected to sequential washes with 1 mL of ice-cold acidified acetone (0.1% 12 N HCl) followed by 1 mL of 100% ice-cold acetone, with centrifugation (11,000 rcf, 4°C, 5 min) after each wash. Samples were air-dried at room temperature, resuspended in 40 µL of ddH₂O, and protein […]\nanalysis, 1-2 µg of purified histones were loaded per lane and processed according to the general immunoblotting protocol described in General Materials and Methods.\nAnalysis of histone modifications by LC-MS/MS\nPreparation of histone samples for LC-MS/MS was performed analogously to the procedure for immunoblotting above, with the following modifications. MCF7 cells (4.2 × 106) were seeded in 15 cm dishes and treated with PF-9363 or vehicle. Experiments were performed in triplicate. Following treatment and PBS washing, cells were scraped and collected in 15 mL falcon tubes, pelleted (500 rcf, 4°C, 5 min), resuspended in 1 mL cold PBS, transferred to microcentrifuge tubes, and pelleted again before flash-freezing in liquid nitrogen for storage at -80°C. For extraction, cell pellets (~100 μL) were resuspended in NIB buffer at a 1:10 ratio, and cells were lysed with NIB buffer containing 0.2% NP-40 for 8 minutes on ice. Nuclei were pelleted at 1,000 rcf for 8 minutes and washed three times with 500 μL detergent-free NIB buffer. Histones were extracted using 800 μL of 0.2 M H₂SO₄, and after centrifugation (3,400 rcf, 4°C, 10", "key": {"[1]": {"conditions": "KAT marker KAT5, PF-9363 0.1, Replicates 1-3"}, "[2]": {"conditions": "KAT marker KAT5, PF-9363 1, Replicates 1-3"}, "[3]": {"conditions": "KAT marker KAT5, PF-9363 10, Replicates 1-3"}, "[4]": {"conditions": "KAT marker KAT5, PF-9363 30, Replicates 1-3"}, "[5]": {"conditions": "KAT marker KAT5, PF-9363 (0.1 mM)"}, "[6]": {"conditions": "KAT marker KAT5, PF-9363 (30 mM)"}, "[7]": {"conditions": "KAT marker KAT5, average ratio 0.1 v 30"}}, "note": "Values joined by “and” are separate entries in the source; they are usually repeats but may differ in a detail not shown here. Identical values can stand only once."}
{"smiles": "COc1cccc(OC)c1S(=O)(=O)Nc1noc2cc(Cn3cccn3)cc(OC)c12", "note": "[PF-9363]", "values": [{"measurement": "Ratio, H2AV_1_19 K11ac*", "setting": "[1]", "value": "0.007595 and 0.00642 and 0.01986"}, {"measurement": "Ratio, H2AX_4_11 K5acK9ac", "setting": "[1]", "value": "0.05241 and 0.03954 and 0.03977"}, {"measurement": "Ratio, H2AX_4_11 K9ac", "setting": "[1]", "value": "0.01011 and 0.01143 and 0.00727"}, {"measurement": "Ratio, H2AZ_1_19 K4ac", "setting": "[1]", "value": "0.0934 and 0.07612 and 0.06178"}, {"measurement": "Ratio, H2AZ_1_19 K4acK11ac", "setting": "[1]", "value": "0.01166 and 0.008639 and 0.01028"}, {"measurement": "Ratio, H2AZ_1_19 K15ac", "setting": "[1]", "value": "0.004599 and 0.02439 and 0.01482"}, {"measurement": "Ratio, H2AV_1_19 K11ac*", "setting": "[2]", "value": "0.004474 and 0.01793 and 0.01146"}, {"measurement": "Ratio, H2AX_4_11 K5acK9ac", "setting": "[2]", "value": "0.01434 and 0.002712 and 0.0302"}, {"measurement": "Ratio, H2AX_4_11 K9ac", "setting": "[2]", "value": "0.009767 and 0.01635 and 0.01121"}, {"measurement": "Ratio, H2AZ_1_19 K4ac", "setting": "[2]", "value": "0.09212 and 0.06375 and 0.07053"}, {"measurement": "Ratio, H2AZ_1_19 K4acK11ac", "setting": "[2]", "value": "0.007173 and 0.01149 and 0.00767"}, {"measurement": "Ratio, H2AZ_1_19 K15ac", "setting": "[2]", "value": "0.003136 and 0.01439 and 0.00489"}, {"measurement": "Ratio, H2AV_1_19 K11ac*", "setting": "[3]", "value": "0.01122 and 0 and 0.008954"}, {"measurement": "Ratio, H2AX_4_11 K5acK9ac", "setting": "[3]", "value": "0.00945 and 0.08577 and 0.02854"}, {"measurement": "Ratio, H2AX_4_11 K9ac", "setting": "[3]", "value": "0.01063 and 0.01009 and 0.01309"}, {"measurement": "Ratio, H2AZ_1_19 K4ac", "setting": "[3]", "value": "0.08614 and 0 and 0.04884"}, {"measurement": "Ratio, H2AZ_1_19 K4acK11ac", "setting": "[3]", "value": "0.008371 and 0 and 0.01009"}, {"measurement": "Ratio, H2AZ_1_19 K15ac", "setting": "[3]", "value": "0.007824 and 0 and 0.01105"}, {"measurement": "Ratio, H2AV_1_19 K11ac*", "setting": "[4]", "value": "0.005769 and 0.002136 and 0.002357"}, {"measurement": "Ratio, H2AX_4_11 K5acK9ac", "setting": "[4]", "value": "0.04001 and 0.01893 and 0.03445"}, {"measurement": "Ratio, H2AX_4_11 K9ac", "setting": "[4]", "value": "0.01286 and 0.00924 and 0.00685"}, {"measurement": "Ratio, H2AZ_1_19 K4ac", "setting": "[4]", "value": "0 and 0.02795 and 0.04699"}, {"measurement": "Ratio, H2AZ_1_19 K4acK11ac", "setting": "[4]", "value": "0 (2×) and 0.004492"}, {"measurement": "Ratio, H2AZ_1_19 K15ac", "setting": "[4]", "value": "0 and 0.01504 and 0.003466"}, {"measurement": "Average ratio, H2AV_1_19 K11ac*", "setting": "[5]", "value": 0.0113}, {"measurement": "Average ratio, H2AX_4_11 K5acK9ac", "setting": "[5]", "value": 0.0439}, {"measurement": "Average ratio, H2AX_4_11 K9ac", "setting": "[5]", "value": 0.0096}, {"measurement": "Average ratio, H2AZ_1_19 K4ac", "setting": "[5]", "value": 0.0771}, {"measurement": "Average ratio, H2AZ_1_19 K4acK11ac", "setting": "[5]", "value": 0.0102}, {"measurement": "Average ratio, H2AZ_1_19 K15ac", "setting": "[5]", "value": 0.0146}, {"measurement": "Average ratio, H2AV_1_19 K11ac*", "setting": "[6]", "value": 0.0034}, {"measurement": "Average ratio, H2AX_4_11 K5acK9ac", "setting": "[6]", "value": 0.0311}, {"measurement": "Average ratio, H2AX_4_11 K9ac", "setting": "[6]", "value": 0.0097}, {"measurement": "Average ratio, H2AZ_1_19 K4ac", "setting": "[6]", "value": 0.0250}, {"measurement": "Average ratio, H2AZ_1_19 K4acK11ac", "setting": "[6]", "value": 0.0015}, {"measurement": "Average ratio, H2AZ_1_19 K15ac", "setting": "[6]", "value": 0.0062}, {"measurement": "Fold-change 0.1 v 30, H2AV_1_19 K11ac*", "setting": "[7]", "value": 3.30}, {"measurement": "Fold-change 0.1 v 30, H2AX_4_11 K5acK9ac", "setting": "[7]", "value": 1.41}, {"measurement": "Fold-change 0.1 v 30, H2AX_4_11 K9ac", "setting": "[7]", "value": 1.00}, {"measurement": "Fold-change 0.1 v 30, H2AZ_1_19 K4ac", "setting": "[7]", "value": 3.09}, {"measurement": "Fold-change 0.1 v 30, H2AZ_1_19 K4acK11ac", "setting": "[7]", "value": 6.81}, {"measurement": "Fold-change 0.1 v 30, H2AZ_1_19 K15ac", "setting": "[7]", "value": 2.37}, {"measurement": "Fold-change 0.1 v 30, H3_18_26 unmod", "setting": "KQLATKAAR(H3_18_26), PF-9363 0.1 v 30", "value": 0.96}, {"measurement": "Average ratio, H3_18_26 unmod", "setting": "KQLATKAAR(H3_18_26), PF-9363 (0.1 mM)", "value": 0.9434}, {"measurement": "Average ratio, H3_18_26 unmod", "setting": "KQLATKAAR(H3_18_26), PF-9363 (30 mM)", "value": 0.9781}, {"measurement": "Ratio, H3_73_83 K79me1", "setting": "PF-9363 0.1, Replicates 1-3", "value": "0.07799 and 0.09275 and 0.09546"}, {"measurement": "Ratio, H3_73_83 K79me2", "setting": "PF-9363 0.1, Replicates 1-3", "value": "0.05292 and 0.1051 and 0.06234"}, {"measurement": "Ratio, H3_73_83 unmod", "setting": "PF-9363 0.1, Replicates 1-3", "value": "0.8672 and 0.8006 and 0.8413"}, {"measurement": "Ratio, H4_4_17 K12acK16ac", "setting": "PF-9363 0.1, Replicates 1-3", "value": "0.009379 and 0.008608 and 0.009722"}, {"measurement": "Ratio, H4_4_17 unmod", "setting": "PF-9363 0.1, Replicates 1-3", "value": "0.6357 and 0.6297 and 0.6309"}, {"measurement": "Ratio, H4_20_23 K20me1", "setting": "PF-9363 0.1, Replicates 1-3", "value": "0.02877 and 0.03606 and 0.02758"}, {"measurement": "Ratio, H4_20_23 unmod", "setting": "PF-9363 0.1, Replicates 1-3", "value": "0.03039 and 0.02967 and 0.02773"}, {"measurement": "Fold-change 0.1 v 30, H2A1_12_17 unmod (AKAKTR)", "setting": "PF-9363 0.1 v 30, peptide H2A1_12_17 unmod, MCF-7", "value": 0.98}, {"measurement": "Fold-change 0.1 v 30, H2A3_12_17 K15me1 (AKAKSR)", "setting": "PF-9363 0.1 v 30, peptide H2A3_12_17 K15me1, MCF-7", "value": 0.96}, {"measurement": "Ratio, H2A1_1_11 K5ac", "setting": "PF-9363 1, Replicates 1-3", "value": "0.9077 and 0.9494 and 0.9116"}, {"measurement": "Ratio, H2A1_4_11 K5ac", "setting": "PF-9363 1, Replicates 1-3", "value": "0.06275 and 0.03204 and 0.05607"}, {"measurement": "Ratio, H2A1_4_11 K9ac", "setting": "PF-9363 1, Replicates 1-3", "value": "0.0308 and 0.06179 and 0.03113"}]}
